Patent US10343977B2, “Tetrahydro-isohumulone derivatives, methods of making and using” (KINDEX PHARMACEUTICALS, INC., priority 2012, dated 2019)

Assays:
[1] = tested on: LPS-mediated prostaglandin E2 (PGE2) production in RAW264.7 cells; assay: LPS-mediated PGE2 production in RAW264.7 murine macrophage model; format: cell-based; conditions: Mus musculus, RAW264.7, 6 h, 12.5 μM test compound, LPS 1 μg/ml, NI = no inhibition
Description: (§1) THIAA derivatives synthesized in Examples 1-19 were dissolved in dimethyl sufoxide (DMSO) and stored at −20° C. LPS was purchased from Sigma Chemicals (St. Louis, Miss.).
(§2) The effect of the THIAA derivatives on LPS-mediated prostaglandin E2 (PGE2) and nitric oxide (NO) production was evaluated in a RAW264.7 murine macrophage model. The RAW 264.7 cell line was purchased from ATCC (Manassas, Va.) and maintained according to their instructions. Cells were grown and subcultured in 96-well plates at a density of 8×10^4 cells per well, and reached 80-90% confluence the next day. THIAA derivatives were added to the cells in serum-free medium at a final concentration of 0.1% DMSO. Following one hour of incubation with the THIAA derivatives, LPS (1 μg/ml) or DMEM medium alone was added to the cells and incubation was continued for 6 hours. Stimulation of RAW 264.7 cells with LPS (1 μg/ml) for 6 hours activated the production of PGE2 and NO. Supernatant media was collected for measurement of PGE2 levels. For NO, incubations were continued overnight. Supernatant media was collected for measurement of NO levels after 16 hours of stimulation. PGE2 levels were measured using assay kits from Assay Designs, (Ann Arbor, Mich.) and NO levels were measured using assay kits from Cayman Chemicals (Ann Harbor, Mich.).
(§3) Results are summarized in Table 2, with data represented as % inhibition of inflammatory mediator production.

[2] = tested on: LPS-mediated MCP-1 production in THP-1 cells; assay: LPS-mediated MCP-1 production in THP-1 cells; format: cell-based; conditions: Homo sapiens; 12.5 μM test compound; THP-1 cells, LPS 1 μg/ml; NI = no inhibition
Description: as §1
(§4) The effect of the THIAA derivatives on LPS-mediated MMP-9, IL-1β, ([…], MCP-1, RANTES, and MIP-1α was evaluated in THP-1 cells. Stimulation of THP-1 cells with LPS (1 μg/ml) activated the production of MMP-9, IL-1β, MCP-1, RANTES, and MIP-1α.
as §3

PPARγ = molecular target: T1, PPARγ (Homo sapiens, UniProt P37231); assay: PPARγ reporter assay (INDIGO Biosciences); format: cell-based; conditions: 20 h, read-out: PPARγ % rosiglitazone (500 nM), 12.5 μM test compound; luciferase reporter cells, 20 hours; activity compared to rosiglitazone
T1 sequence (P37231 1-505): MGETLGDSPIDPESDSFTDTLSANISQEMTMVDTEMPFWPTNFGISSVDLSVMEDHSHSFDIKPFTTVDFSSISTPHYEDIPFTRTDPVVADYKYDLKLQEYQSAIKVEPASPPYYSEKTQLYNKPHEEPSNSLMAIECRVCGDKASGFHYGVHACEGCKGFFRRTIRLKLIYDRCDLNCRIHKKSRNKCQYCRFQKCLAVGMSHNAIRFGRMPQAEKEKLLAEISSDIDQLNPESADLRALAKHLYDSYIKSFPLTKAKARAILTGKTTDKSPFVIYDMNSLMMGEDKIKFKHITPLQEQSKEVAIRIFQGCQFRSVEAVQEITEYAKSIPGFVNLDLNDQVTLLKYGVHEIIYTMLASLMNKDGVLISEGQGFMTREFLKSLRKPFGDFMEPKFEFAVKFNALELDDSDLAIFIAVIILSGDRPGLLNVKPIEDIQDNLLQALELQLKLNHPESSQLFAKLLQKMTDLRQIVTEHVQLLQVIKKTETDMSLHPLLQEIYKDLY
Description: (§5) The functional effect of THIAA derivatives on PPARα and PPARγ activity was evaluated using a PPAR reporter assay (INDIGO Biosciences, Pa.). This assay utilizes non-human mammalian cells engineered to provide constitutive high level expression of PPARα, or PPARγ and containing a luciferase report gene specific to the appropriate PPAR. Following activation by agonist binding, PPAR induces expression of the luciferase reporter gene. Luciferase activity therefore provides a surrogate for measuring PPAR activity in agonist-treated cells.
(§6) 0.1% DMSO was used as a solvent control for each assay. Plates were incubated for 20 hours in a humidified incubator at 37° C. and 5% CO2. After incubation, the cell medium was discarded and the cells were treated with 100 μL of luciferase detection reagent for 15 minutes. Plates were analyzed using a luminometer (Victor2, Perkin Elmer). Average relative light unit (RLU) and standard deviation were measured.

[3] = tested on: LPS-mediated MIP-1α production in THP-1 cells; assay: LPS-mediated MIP-1α production in THP-1 cells; format: cell-based; conditions: Homo sapiens; 12.5 μM test compound; THP-1 cells, LPS 1 μg/ml; NI = no inhibition
Description: as §1, §4, §3

[4] = tested on: LPS-mediated inflammatory mediators in RAW264.7 and THP-1 cells; assay: Mean inhibition across all six inflammatory mediators; format: cell-based; conditions: 12.5 μM test compound
Description: as §2, §4, §3
Mean inhibition across all six inflammatory mediators was calculated for each of the THIAA derivatives.

[5] = tested on: LPS-mediated RANTES production in THP-1 cells; assay: LPS-mediated RANTES production in THP-1 cells; format: cell-based; conditions: Homo sapiens; 12.5 μM test compound; THP-1 cells, LPS 1 μg/ml; NI = no inhibition
Description: as §1, §4, §3

[6] = tested on: LPS-mediated nitric oxide (NO) production in RAW264.7 cells; assay: LPS-mediated NO production in RAW264.7 murine macrophage model; format: cell-based; conditions: Mus musculus, RAW264.7, 16 h, 12.5 μM test compound, LPS 1 μg/ml, NI = no inhibition
Description: as §1, §2, §3

PPARα = molecular target: T2, PPARα (Homo sapiens, UniProt Q07869); assay: PPARα reporter assay (INDIGO Biosciences); format: cell-based; conditions: 12.5 μM test compound, luciferase reporter cells, 20 hours, activity compared to GW590735; for Emax at 12.5 µM: read-out: PPARα % GW590735 (20.6 nM)
T2 sequence (Q07869 1-468): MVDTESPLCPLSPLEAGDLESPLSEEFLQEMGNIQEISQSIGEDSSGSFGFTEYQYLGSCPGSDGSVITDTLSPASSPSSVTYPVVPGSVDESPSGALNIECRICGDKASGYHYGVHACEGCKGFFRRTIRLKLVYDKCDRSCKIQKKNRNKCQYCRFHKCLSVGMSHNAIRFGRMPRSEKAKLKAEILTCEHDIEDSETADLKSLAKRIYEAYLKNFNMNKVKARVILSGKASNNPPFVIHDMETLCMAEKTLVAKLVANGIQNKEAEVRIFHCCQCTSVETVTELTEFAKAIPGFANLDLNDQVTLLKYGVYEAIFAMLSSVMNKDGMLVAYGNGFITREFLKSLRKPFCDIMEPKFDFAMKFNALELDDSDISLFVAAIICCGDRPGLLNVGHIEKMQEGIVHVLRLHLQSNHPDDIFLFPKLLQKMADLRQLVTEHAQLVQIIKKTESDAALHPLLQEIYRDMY
Description: as §5, §6

[7] = tested on: LPS-mediated IL-6 production in THP-1 cells; assay: LPS-mediated IL-6 production in THP-1 cells; format: cell-based; conditions: Homo sapiens; 12.5 μM test compound; THP-1 cells, LPS 1 μg/ml; NI = no inhibition
Description: as §1, §4, §3

Structure (SMILES) | inhibition at 12.5 µM [1] [%] | inhibition at 12.5 µM [2] [%] | Emax at 12.5 µM (PPARγ) [%] | inhibition at 12.5 µM [3] [%] | inhibition at 12.5 µM [4] [%] | inhibition at 12.5 µM [5] [%] | inhibition at 12.5 µM [6] [%] | Emax at 12.5 µM (PPARα) [%] | inhibition at 12.5 µM [7] [%] | PPARα % GW590735 (20.6 nM) (PPARα) | melting point [°C]
CC(C)CCC(=O)[C@@]1(O)C(=O)/C(=C(\CC(C)C)NCc2ccccc2)C(=O)[C@@H]1CCC(C)C [KDT0024, (4R,5R)-2-[1-(benzylamino)-3-methylbutylidene]-4-hydroxy-5-(3-methylbutyl)-4-(4-methylpentanoyl)cyclopentane-1,3-dione] | 81 | 80 | < 5 | < 0 | 44 | 20 | 27 | < 5 | 53 | – | –
C#CCCOC(=O)O[C@]1(C(=O)CCC(C)C)C(O)=C(C(=O)CC(C)C)C(=O)[C@@H]1CCC(C)C [KDT0035, but-3-yn-1-yl (1S,5R)-2-hydroxy-3-(3-methylbutanoyl)-5-(3-methylbutyl)-1-(4-methylpentanoyl)-4-oxocyclopent-2-en-1-yl carbonate] | 89 | 95 | 43 | 82 | 77 | 84 | 44 | 40 | 65 | dual PPARα and PPARγ agonists | –
CCCCCCCCCC(=O)O[C@]1(C(=O)CCC(C)C)C(O)=C(C(=O)C(C)C)C(=O)[C@@H]1CCC(C)C [KDT0036, (1S,5R)-2-hydroxy-5-(3-methylbutyl)-1-(4-methylpentanoyl)-3-(2-methylpropanoyl)-4-oxocyclopent-2-en-1-yl decanoate] | 45 | 98 | ≥ 5 | 25 | 73 | 88 | 97 | < 5 | 83 | no effect | –
CC(C)CC[C@H]1C(=O)C(C(=O)CC(C)C)=C(O)[C@]1(O)C(=O)CCC(C)C(=O)O (stereo partly drawn) [KDT0038, 5-[(1S,5R)-1,2-dihydroxy-3-(3-methylbutanoyl)-5-(3-methylbutyl)-4-oxocyclopent-2-en-1-yl]-2-methyl-5-oxopentanoic Acid] | < 0 | 46 | < 5 | < 0 | < 20 | < 20 | < 0 | < 5 | < 0 | – | –
CC(C)CCC(O)[C@@]1(O)C(O)=C(C(=O)CC(C)C)C(=O)[C@@H]1CCC(C)C (stereo partly drawn) [KDT0039, (4R,5R)-3,4-dihydroxy-4-(1-hydroxy-4-methylpentyl)-2-(3-methylbutanoyl)-5-(3-methylbutyl)cyclopent-2-en-1-one] | < 0 | 50 | < 5 | 23 | 26 | 58 | < 20 | < 5 | 22 | – | –
CC(C)=CC[C@H]1C(=O)C(C(=O)CC(C)C)=C(O)[C@]1(O)C(=O)/C=C/C(C)(C)O [KDT0040, (4S,5R)-3,4-dihydroxy-4-[(2E)-4-hydroxy-4-methylpent-2-enoyl]-2-(3-methylbutanoyl)-5-(3-methylbut-2-en-1-yl)cyclopent-2-en-1-one] | 54 | 53 | < 5 | < 0 | 25 | 18 | 26 | < 5 | < 0 | – | –
CC(C)CCC(=O)[C@@]1(O)C(O)=C(C(=O)C(C)C)C(=O)[C@@H]1CCC(C)C [KDT100, (4S,5R)-3,4-dihydroxy-5-(3-methylbutyl)-4-(4-methylpentanoyl)-2-(2-methylpropanoyl)cyclopent-2-en-1-one] | < 0 | 61 | – | < 0 | < 20 | 22 | < 0 | < 5 | < 20 | no effect | 49 to 50
CC(C)CCC(=O)[C@@]1(O)C(O)=C(C(=O)CC(C)C)C(=O)[C@H]1CCC(C)C [KDT700, (4S,5S)-3,4-dihydroxy-2-(3-methylbutanoyl)-5-(3-methylbutyl)-4-(4-methylpentanoyl)cyclopent-2-en-1-one] | < 20 | 88 | < 5 | 36 | 34 | 64 | < 0 | < 5 | < 20 | – | –
